Measurements published in patent US20120202856A1, “SUBSTITUTED BENZIMDAZOLE DERIVATIVES USEFUL AS TRPM8 RECEPTOR MODULATORS” (priority 2011, published 2012).
Values joined by “and” are separate entries in the source; they are usually repeats but may differ in a detail not shown here. Equal entries are not always repeated. Structures can show the parent of a compound that is named as a salt.

Molecular target: T1, canine TRPM8 (Canis lupus familiaris, UniProt Q1A7N1)
T1 construct: expressed in transfected cells
Experiment: In Vitro Canine TRPM8 Functional Assay (intracellular Ca2+ fluorescence, icilin activation, HEK293 cells)
Type: cell-based
Details: for IC50: HEK293 cells expressing canine TRPM8, icilin activation, individually measured values (batches/salt forms), read-out: IC50 (nM), in vitro TRP M8 Activity; for inhibition at 0.2 µM: HEK293, 0.2 μM test compound, read-out: % Inh (%) @0.2 μM, in vitro TRP M8 Activity
Protocol: The changes in fluorescent signal were monitored by a fluorescence plate reader, either a FLIPR™ (Molecular Devices) or FDSS (Hamamatsu). […] Cells were maintained in 5% CO2 at 37° C. At 24 hr prior to assay, cells were seeded in black wall, clear-base poly-D-lysine coated 384-well plates (BD Biosciences, NJ, USA) at a density of 5,000 cells per well in culture medium and grown overnight in 5% CO2 at 37° C. On assay day, growth media was removed, and cells were loaded with Calcium 3 Dye (Molecular Devices) for 35 min at 37° C., under 5% CO2 and then incubated for 25 min at room temperature and atmosphere. Subsequently, cells were tested for agonist-induced increases in intracellular Ca^2+ levels using FLIPR™ or FDSS. […] Maximal fluorescence intensity (FI) achieved upon addition of icilin was exported from the FLIPR™ or FDSS software and further analyzed using GraphPad Prism 3.02 (Graph Pad Software Inc., CA, U.S.A.). Basal FI was subtracted prior to normalizing data to percent of maximal response. Curves were generated using the average of quadruplicate wells for each data point using nonlinear regression of either sigmoidal dose response or sigmoidal dose response (variable slope). Finally, IC50 values were calculated with the best-fit curve determined by GraphPad Prism

T1 sequence (Q1A7N1 1-1104): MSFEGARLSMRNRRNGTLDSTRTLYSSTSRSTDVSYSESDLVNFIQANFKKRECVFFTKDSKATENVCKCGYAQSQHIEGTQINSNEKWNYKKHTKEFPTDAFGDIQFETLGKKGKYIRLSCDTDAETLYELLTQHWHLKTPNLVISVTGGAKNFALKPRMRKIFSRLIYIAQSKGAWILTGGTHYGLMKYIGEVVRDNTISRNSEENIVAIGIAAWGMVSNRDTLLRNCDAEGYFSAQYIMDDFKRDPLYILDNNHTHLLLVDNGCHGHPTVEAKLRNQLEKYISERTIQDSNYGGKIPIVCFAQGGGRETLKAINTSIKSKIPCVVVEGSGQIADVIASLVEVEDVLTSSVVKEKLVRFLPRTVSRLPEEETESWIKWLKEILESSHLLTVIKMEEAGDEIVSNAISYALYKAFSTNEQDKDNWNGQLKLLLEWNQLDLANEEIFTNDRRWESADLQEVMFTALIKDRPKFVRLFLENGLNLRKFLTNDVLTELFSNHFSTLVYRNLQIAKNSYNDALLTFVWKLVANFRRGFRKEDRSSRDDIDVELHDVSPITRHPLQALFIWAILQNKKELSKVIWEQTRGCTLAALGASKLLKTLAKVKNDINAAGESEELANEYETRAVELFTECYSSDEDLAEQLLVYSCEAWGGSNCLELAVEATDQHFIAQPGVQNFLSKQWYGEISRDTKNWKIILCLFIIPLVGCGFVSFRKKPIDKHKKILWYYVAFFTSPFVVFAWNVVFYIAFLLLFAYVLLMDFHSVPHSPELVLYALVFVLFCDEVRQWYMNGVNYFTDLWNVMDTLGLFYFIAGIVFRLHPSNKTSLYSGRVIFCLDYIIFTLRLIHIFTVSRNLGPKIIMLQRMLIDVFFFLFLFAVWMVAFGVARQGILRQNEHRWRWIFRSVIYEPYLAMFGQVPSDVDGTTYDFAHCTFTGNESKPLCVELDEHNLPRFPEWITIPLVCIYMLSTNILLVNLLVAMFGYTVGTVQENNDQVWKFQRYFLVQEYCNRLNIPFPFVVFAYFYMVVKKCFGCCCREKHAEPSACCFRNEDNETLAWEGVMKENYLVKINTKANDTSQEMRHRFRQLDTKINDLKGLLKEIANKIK

IC50 | inhibition at 0.2 µM (individually measured values) [%] | % Inh (%) @0.2 μM, in vitro TRP M8 Activity (0.2 μM test compound, individually measured values, sodium salt, 0.2 µM) [%] | Compound
4.5 nM |  |  | Cc1c(C(C)(C)C)nn(C)c1-c1nc2cc(-c3ccccc3Cl)ccc2[nH]1 [Compound 94, 2-(5-tert-Butyl-2,4-dimethyl-2H-pyrazol-3-yl)-5-(2-chloro-phenyl)-1H-benzimidazole hydrochloride]
5.7 nM |  |  | Cc1c(C(C)(C)C)nn(C)c1-c1nc2cc(-c3c(F)cccc3F)ccc2[nH]1 [Compound 95, 2-(5-tert-Butyl-2,4-dimethyl-2H-pyrazol-3-yl)-5-(2,6-difluoro-phenyl)-1H-benzimidazole hydrochloride]
6.6 nM |  |  | Cc1c(C(C)(C)C)nn(C)c1-c1nc2cc(-c3c(F)cccc3OC(F)(F)F)ccc2[nH]1 [Compound 96, 2-(5-tert-Butyl-2,4-dimethyl-2H-pyrazol-3-yl)-5-(2-fluoro-6-trifluoromethoxy-phenyl)-1H-benzimidazole hydrochloride]
6.9 nM |  |  | Cc1c(C(C)(C)C)nn(C)c1-c1nc2cc(-c3c(C(F)(F)F)cccc3C(F)(F)F)ccc2[nH]1 [Compound 97, 5-(2,6-Bis-trifluoromethyl-phenyl)-2-(5-tert-butyl-2,4-dimethyl-2H-pyrazol-3-yl)-1H-benzimidazole hydrochloride]
33.7 nM | 91 |  | CC(C)(C)c1ncc(-c2nc3cc(-c4ccccc4C(F)(F)F)ccc3[nH]2)s1 [Compound 100, 2-(2-tert-Butyl-thiazol-5-yl)-5-(2-trifluoromethyl-phenyl)-1H-benzimidazole hydrochloride]
 | 33 |  | CC(CO)n1nc(C(C)(C)C)cc1-c1nc2cc(-c3ccccc3C(F)(F)F)ccc2[nH]1 (stereo not drawn) [Compound 101, 2-{3-tert-Butyl-5-[5-(2-trifluoromethylphenyl)-1H-benzimidazol-2-yl]-pyrazol-1-yl}-propan-1-ol hydrochloride]
54.4 nM |  |  | CC(C)(C)c1cc(-c2nc3cc(-c4ccccc4C(F)(F)F)ccc3[nH]2)n(CCO)n1 [Compound 102, 2-{3-tert-Butyl-5-[5-(2-trifluoromethylphenyl)-1H-benzimidazol-2-yl]-pyrazol-1-yl}-ethanol hydrochloride]
4.5 nM |  |  | CC(C)(C)c1cc(-c2nc3cc(-c4c(F)cccc4OC(F)(F)F)ccc3[nH]2)on1 [Compound 103, 2-(3-tert-Butyl-isoxazol-5-yl)-5-(2-fluoro-6-trifluoromethoxy-phenyl)-1H-benzimidazole hydrochloride]
3.9 nM |  |  | CC(C)(C)c1cc(-c2nc3cc(-c4c(C(F)(F)F)cccc4C(F)(F)F)ccc3[nH]2)on1 [Compound 104, 5-(2,6-Bis-trifluoromethyl-phenyl)-2-(3-tert-butyl-isoxazol-5-yl)-1H-benzimidazole hydrochloride]
16.4 nM |  |  | COc1ccc(F)cc1-c1ccc2[nH]c(-c3cc(C(C)(C)C)no3)nc2c1 [Compound 105, 2-(3-tert-Butyl-isoxazol-5-yl)-5-(5-fluoro-2-methoxy-phenyl)-1H-benzimidazole hydrochloride]
21.8 nM |  |  | Cc1c(C(C)(C)C)noc1-c1nc2cc(-c3ccccc3F)ccc2[nH]1 [Compound 106, 2-(3-tert-Butyl-4-methyl-isoxazol-5-yl)-5-(2-fluoro-phenyl)-1H-benzimidazole hydrochloride]
11.9 nM |  |  | Cc1c(C(C)(C)C)noc1-c1nc2cc(-c3ccccc3Cl)ccc2[nH]1 [Compound 107, 2-(3-tert-Butyl-4-methyl-isoxazol-5-yl)-5-(2-chloro-phenyl)-1H-benzimidazole hydrochloride]
10.2 nM |  |  | Cc1c(C(C)(C)C)noc1-c1nc2cc(-c3ccccc3C(F)(F)F)ccc2[nH]1 [Compound 108, 2-(3-tert-Butyl-4-methyl-isoxazol-5-yl)-5-(2-trifluoromethyl-phenyl)-1H-benzimidazole hydrochloride]
13.9 nM |  |  | Cc1c(C(C)(C)C)noc1-c1nc2cc(-c3c(F)cccc3F)ccc2[nH]1 [Compound 109, 2-(3-tert-Butyl-4-methyl-isoxazol-5-yl)-5-(2,6-difluoro-phenyl)-1H-benzimidazole hydrochloride]
14.3 nM |  |  | Cc1c(C(C)(C)C)noc1-c1nc2cc(-c3c(F)cccc3OC(F)(F)F)ccc2[nH]1 [Compound 110, 2-(3-tert-Butyl-4-methyl-isoxazol-5-yl)-5-(2-fluoro-6-trifluoromethoxy-phenyl)-1H-benzimidazole hydrochloride]
10.1 nM |  |  | Cc1c(C(C)(C)C)noc1-c1nc2cc(-c3c(F)cccc3C(F)(F)F)ccc2[nH]1 [Compound 111, 2-(3-tert-Butyl-4-methyl-isoxazol-5-yl)-5-(2-fluoro-6-trifluoromethyl-phenyl)-1H-benzimidazole hydrochloride]
4.7 nM and 10.3 nM and 10.2 nM | 99 | 100 | Cl.Cn1nc(C(C)(C)C)c(Cl)c1-c1nc2cc(-c3ccccc3F)cc(Cl)c2[nH]1 [Compound 114, 2-(5-tert-Butyl-4-chloro-2-methyl-2H-pyrazol-3-yl)-7-chloro-5-(2-fluoro-phenyl)-1H-benzimidazole sodium salt]
9.6 nM |  |  | Cc1c(C(C)(C)C)nn(C)c1-c1nc2cc(-c3ccccc3F)cc(C(F)(F)F)c2[nH]1 [Compound 118, 2-(5-tert-Butyl-2,4-dimethyl-2H-pyrazol-3-yl)-5-(2-fluoro-phenyl)-7-trifluoromethyl-1H-benzimidazole hydrochloride]
2 nM |  |  | Cc1c(C(C)(C)C)nn(C)c1-c1nc2cc(-c3c(F)cccc3C(F)(F)F)cc(C(F)(F)F)c2[nH]1 [Compound 119, 2-(5-tert-Butyl-2,4-dimethyl-2H-pyrazol-3-yl)-5-(2-fluoro-6-trifluoromethyl-phenyl)-7-trifluoromethyl-1H-benzimidazole hydrochloride]
3.1 nM |  |  | Cc1c(C(C)(C)C)nn(C)c1-c1nc2cc(-c3ccccc3Cl)cc(C(F)(F)F)c2[nH]1 [Compound 121, 2-(5-tert-Butyl-2,4-dimethyl-2H-pyrazol-3-yl)-5-(2-chloro-phenyl)-7-trifluoromethyl-1H-benzimidazole hydrochloride]
5.5 nM |  |  | Cc1c(C(C)(C)C)nn(C)c1-c1nc2cc(-c3c(F)cccc3F)cc(C(F)(F)F)c2[nH]1 [Compound 122, 2-(5-tert-Butyl-2,4-dimethyl-2H-pyrazol-3-yl)-5-(2,6-difluoro-phenyl)-7-trifluoromethyl-1H-benzimidazole hydrochloride]
7.9 nM |  |  | Cc1c(C(C)(C)C)nn(C)c1-c1nc2cc(-c3c(F)cccc3OC(F)(F)F)cc(C(F)(F)F)c2[nH]1 [Compound 123, 2-(5-tert-Butyl-2,4-dimethyl-2H-pyrazol-3-yl)-5-(2-fluoro-6-trifluoromethoxy-phenyl)-7-trifluoromethyl-1H-benzimidazole hydrochloride]
7.3 nM and 4.4 nM | 99 |  | Cn1nc(C(C)(C)C)c(Cl)c1-c1nc2cc(-c3c(F)cccc3F)cc(C(F)(F)F)c2[nH]1 [Compound 124, 2-(5-tert-Butyl-4-chloro-2-methyl-2H-pyrazol-3-yl)-5-(2,6-difluoro-phenyl)-7-trifluoromethyl-1H-benzimidazole hydrochloride]
3.9 nM and 3.5 nM | 99 |  | Cn1nc(C(C)(C)C)c(Cl)c1-c1nc2cc(-c3c(F)cccc3OC(F)(F)F)cc(C(F)(F)F)c2[nH]1 [Compound 126, 2-(5-tert-Butyl-4-chloro-2-methyl-2H-pyrazol-3-yl)-5-(2-fluoro-6-trifluoromethoxy-phenyl)-7-trifluoromethyl-1H-benzimidazole hydrochloride]
11.5 nM and 6.3 nM | 99 |  | Cn1nc(C(C)(C)C)c(Cl)c1-c1nc2cc(-c3ccccc3F)cc(C(F)(F)F)c2[nH]1 [Compound 127, 2-(5-tert-Butyl-4-chloro-2-methyl-2H-pyrazol-3-yl)-5-(2-fluoro-phenyl)-7-trifluoromethyl-1H-benzimidazole hydrochloride]
2.7 nM and 5.1 nM | 99 |  | Cn1nc(C(C)(C)C)c(Cl)c1-c1nc2cc(-c3ccccc3Cl)cc(C(F)(F)F)c2[nH]1 [Compound 128, 2-(5-tert-Butyl-4-chloro-2-methyl-2H-pyrazol-3-yl)-5-(2-chloro-phenyl)-7-trifluoromethyl-1H-benzimidazole sodium salt]
6.2 nM and 4.1 nM | 99 |  | Cn1nc(C(C)(C)C)c(Cl)c1-c1nc2cc(-c3ccccc3C(F)(F)F)cc(C(F)(F)F)c2[nH]1 [Compound 129, 2-(5-tert-Butyl-4-chloro-2-methyl-2H-pyrazol-3-yl)-7-trifluoromethyl-5-(2-trifluoromethyl-phenyl)-1H-benzimidazole hydrochloride]
42 nM | 100 |  | Cn1nc2c(c1-c1nc3cc(-c4ccccc4F)ccc3[nH]1)CCC2(C)C [Compound 131]
5.6 nM and 10.9 nM | 99 |  | Cc1c(C(C)(C)C)nn(C)c1-c1nc2cc(-c3ccccc3Cl)cc(Cl)c2[nH]1 [Compound 134, 2-(5-tert-Butyl-2,4-dimethyl-2H-pyrazol-3-yl)-7-chloro-5-(2-chloro-phenyl)-1H-benzimidazole hydrochloride]
